Experimental data taken from ChEMBL document CHEMBL3885881, “DrugMatrix”.

Species: Rattus norvegicus
Assay: DrugMatrix - Regimen: Daily Repeat
Assay type: toxicity, organism-based, Sprague-Dawley
Design: regimen Daily Repeat, gender Male, age 6-8 weeks
Settings: in vivo, po, […], route oral GAVAGE; for ABSOLUTE BASOPHIL / ABSOLUTE EOSINOPHIL / ABSOLUTE LYMPHOCYTE / ABSOLUTE MONOCYTE / ABSOLUTE SEGMENTED NEUTROPHIL / BASOPHIL / EOSINOPHIL / ERYTHROCYTE COUNT / HEMATOCRIT / HEMOGLOBIN / LEUKOCYTE COUNT / LYMPHOCYTE / MEAN CORPUSCULAR HEMOGLOBIN / MEAN CORPUSCULAR HEMOGLOBIN CONCENTRATION / MEAN CORPUSCULAR VOLUME / MONOCYTE / NEUTROPHIL / NUCLEATED RED BLOOD CELLS / PLATELET COUNT: tissue Blood; for ALANINE AMINOTRANSFERASE / ALBUMIN / ALKALINE PHOSPHATASE / ASPARTATE AMINOTRANSFERASE / BLOOD UREA NITROGEN / CARBON DIOXIDE / CHLORIDE / CHOLESTEROL / CREATINE PHOSPHOKINASE / CREATININE / GLUCOSE / LACTATE DEHYDROGENASE / LIPASE / PHOSPHORUS / POTASSIUM / SODIUM / TOTAL BILIRUBIN / TOTAL PROTEIN / URIC ACID: tissue Plasma
[1] = 30 mg/kg, dose level Low, time 7 day
[2] = 60 mg/kg, 72 h, dose level High, time 3 day
[3] = 60 mg/kg, dose level High, time 7 day

S=C=Nc1cccc2ccccc12 [1-NAPHTHYLISOTHIOCYANATE]
ABSOLUTE BASOPHIL [1]: 0 CELLS/uL | ABSOLUTE EOSINOPHIL [1]: 0 CELLS/uL | ABSOLUTE LYMPHOCYTE [1]: 18648 CELLS/uL | ABSOLUTE MONOCYTE [1]: 658.33 CELLS/uL | ABSOLUTE SEGMENTED NEUTROPHIL [1]: 6027 CELLS/uL | BASOPHIL [1]: 0% | EOSINOPHIL [1]: 0% | ERYTHROCYTE COUNT [1]: 5.54 x10E6/uL | HEMATOCRIT [1]: 31.6% | HEMOGLOBIN [1]: 13.02 G/DL | LEUKOCYTE COUNT [1]: 25.33 x10E3/uL | LYMPHOCYTE [1]: 74.17% | MEAN CORPUSCULAR HEMOGLOBIN [1]: 23.55 pg | MEAN CORPUSCULAR HEMOGLOBIN CONCENTRATION [1]: 41.2 G/DL | MEAN CORPUSCULAR VOLUME [1]: 57.07 fL | MONOCYTE [1]: 2.33% | NEUTROPHIL [1]: 23.5% | NUCLEATED RED BLOOD CELLS [1]: 0 /100WBC | PLATELET COUNT [1]: 1468.17 x10E3/uL | ALANINE AMINOTRANSFERASE [1]: 195.83 u/L | ALBUMIN [1]: 3.78 G/DL | ALKALINE PHOSPHATASE [1]: 515.67 u/L | ASPARTATE AMINOTRANSFERASE [1]: 302 u/L | BLOOD UREA NITROGEN [1]: 11.83 mg/dL | CARBON DIOXIDE [1]: 27.67 mmol/L | CHLORIDE [1]: 96.67 MEQ/L | CHOLESTEROL [1]: 137 mg/dL | CREATINE PHOSPHOKINASE [1]: 291.83 u/L | CREATININE [1]: 0.18 mg/dL | GLUCOSE [1]: 98.33 mg/dL | LACTATE DEHYDROGENASE [1]: 164.67 u/L | LIPASE [1]: 11 u/L | PHOSPHORUS [1]: 8.68 mg/dL | POTASSIUM [1]: 6.99 MEQ/L | SODIUM [1]: 139.38 MEQ/L | TOTAL BILIRUBIN [1]: 3.15 mg/dL | TOTAL PROTEIN [1]: 6.52 G/DL | URIC ACID [1]: 0.93 mg/dL | ABSOLUTE BASOPHIL [2]: 0 CELLS/uL | ABSOLUTE EOSINOPHIL [2]: 24.67 CELLS/uL | ABSOLUTE LYMPHOCYTE [2]: 8862.67 CELLS/uL | ABSOLUTE MONOCYTE [2]: 317.33 CELLS/uL | ABSOLUTE SEGMENTED NEUTROPHIL [2]: 2312 CELLS/uL | BASOPHIL [2]: 0% | EOSINOPHIL [2]: 0.33% | ERYTHROCYTE COUNT [2]: 6.41 x10E6/uL | HEMATOCRIT [2]: 39.08% | HEMOGLOBIN [2]: 14.75 G/DL | LEUKOCYTE COUNT [2]: 11.52 x10E3/uL | LYMPHOCYTE [2]: 77% | MEAN CORPUSCULAR HEMOGLOBIN [2]: 23 pg | MEAN CORPUSCULAR HEMOGLOBIN CONCENTRATION [2]: 37.77 G/DL | MEAN CORPUSCULAR VOLUME [2]: 60.88 fL | MONOCYTE [2]: 2.5% | NEUTROPHIL [2]: 20.17% | NUCLEATED RED BLOOD CELLS [2]: 0.17 /100WBC | PLATELET COUNT [2]: 1204.67 x10E3/uL | ALANINE AMINOTRANSFERASE [2]: 183.5 u/L | ALBUMIN [2]: 3.77 G/DL | ALKALINE PHOSPHATASE [2]: 566.83 u/L | ASPARTATE AMINOTRANSFERASE [2]: 458.5 u/L | BLOOD UREA NITROGEN [2]: 11.67 mg/dL | CARBON DIOXIDE [2]: 28.67 mmol/L | CHLORIDE [2]: 94.67 MEQ/L | CHOLESTEROL [2]: 312 mg/dL | CREATINE PHOSPHOKINASE [2]: 420.5 u/L | CREATININE [2]: 0.28 mg/dL | GLUCOSE [2]: 125.17 mg/dL | LACTATE DEHYDROGENASE [2]: 229.33 u/L | LIPASE [2]: 12.5 u/L | PHOSPHORUS [2]: 8.75 mg/dL | POTASSIUM [2]: 6.43 MEQ/L | SODIUM [2]: 140.67 MEQ/L | TOTAL BILIRUBIN [2]: 3.47 mg/dL | TOTAL PROTEIN [2]: 6.93 G/DL | URIC ACID [2]: 0.85 mg/dL | ABSOLUTE BASOPHIL [3]: 0 CELLS/uL | ABSOLUTE EOSINOPHIL [3]: 0 CELLS/uL | ABSOLUTE LYMPHOCYTE [3]: 17693.83 CELLS/uL | ABSOLUTE MONOCYTE [3]: 897.83 CELLS/uL | ABSOLUTE SEGMENTED NEUTROPHIL [3]: 12275 CELLS/uL | BASOPHIL [3]: 0% | EOSINOPHIL [3]: 0% | ERYTHROCYTE COUNT [3]: 5.43 x10E6/uL | HEMATOCRIT [3]: 31.22% | HEMOGLOBIN [3]: 12.83 G/DL | LEUKOCYTE COUNT [3]: 30.87 x10E3/uL | LYMPHOCYTE [3]: 60.83% | MEAN CORPUSCULAR HEMOGLOBIN [3]: 23.63 pg | MEAN CORPUSCULAR HEMOGLOBIN CONCENTRATION [3]: 41.02 G/DL | MEAN CORPUSCULAR VOLUME [3]: 57.68 fL | MONOCYTE [3]: 2.67% | NEUTROPHIL [3]: 36.5% | NUCLEATED RED BLOOD CELLS [3]: 0 /100WBC | PLATELET COUNT [3]: 1574.83 x10E3/uL | ALANINE AMINOTRANSFERASE [3]: 179.83 u/L | ALBUMIN [3]: 3.78 G/DL | ALKALINE PHOSPHATASE [3]: 516 u/L | ASPARTATE AMINOTRANSFERASE [3]: 418 u/L | BLOOD UREA NITROGEN [3]: 12.33 mg/dL | CARBON DIOXIDE [3]: 26.67 mmol/L | CHLORIDE [3]: 94 MEQ/L | CHOLESTEROL [3]: 384.5 mg/dL | CREATINE PHOSPHOKINASE [3]: 339.67 u/L | CREATININE [3]: 0.1 mg/dL | GLUCOSE [3]: 96.33 mg/dL | LACTATE DEHYDROGENASE [3]: 286.67 u/L | LIPASE [3]: 12.17 u/L | PHOSPHORUS [3]: 8.75 mg/dL | POTASSIUM [3]: 6.62 MEQ/L | SODIUM [3]: 137.88 MEQ/L | TOTAL BILIRUBIN [3]: 8.2 mg/dL | TOTAL PROTEIN [3]: 6.48 G/DL | URIC ACID [3]: 0.87 mg/dL
